Results: US8912186B2, “Allosteric protein kinase modulators” (Universitaet des Saarlandes, priority 2008, dated 2014)

What was measured:
Type in all cases: biochemical
[1] = molecular target: T1, PDK1 (Homo sapiens, UniProt O15530); test: cell-free kinase activity assay (ATPgamma[32P], T308tide substrate); conditions: for activity at 50 µM: 50 μM compound; for activity at 50 µM / activity at 200 µM: DMSO control set 100%, read-out: percent of catalytic activity of the Kinase in the presence of compound as compared to the solvent control (DMSO): PDK1; for activity at 200 µM: 200 μM compound; for AC50: concentration of the compound required to activate half maximally; for AC50 / max. activation of PDK1 (fold): n.e.: no effect; for max. activation of PDK1 (fold): maximum activation achievable, compared to the basal activity of PDK1
T1 construct: GST
T1 sequence (O15530 1-556): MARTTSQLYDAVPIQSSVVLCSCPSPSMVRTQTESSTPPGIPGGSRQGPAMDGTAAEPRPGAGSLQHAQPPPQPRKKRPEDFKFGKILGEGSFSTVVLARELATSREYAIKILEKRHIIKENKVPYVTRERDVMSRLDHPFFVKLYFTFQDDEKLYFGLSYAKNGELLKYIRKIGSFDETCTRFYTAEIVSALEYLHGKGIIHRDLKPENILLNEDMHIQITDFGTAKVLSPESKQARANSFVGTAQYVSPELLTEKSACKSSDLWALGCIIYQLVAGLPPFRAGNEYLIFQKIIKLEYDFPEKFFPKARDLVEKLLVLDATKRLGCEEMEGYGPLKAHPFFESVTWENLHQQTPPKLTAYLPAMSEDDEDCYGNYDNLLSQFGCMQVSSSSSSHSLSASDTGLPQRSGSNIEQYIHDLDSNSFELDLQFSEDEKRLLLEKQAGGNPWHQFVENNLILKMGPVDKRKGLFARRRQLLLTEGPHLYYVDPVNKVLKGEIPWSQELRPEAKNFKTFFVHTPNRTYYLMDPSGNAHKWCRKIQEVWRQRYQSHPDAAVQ
Source text: Principle of the cell-free kinase activity assay: In general, the activity of the compounds as protein kinase inhibitors or activators may be assayed in vitro (cell free assay is meant here), in vivo or in a cell line. In vitro assays include assays that determine inhibition or activation of either the phosphorylation activity or ATPase activity of the activated protein kinase. Alternate in vitro assays quantitate the ability of the inhibitor to bind to the protein kinase. Compound binding may be measured by radiolabelling the compound prior to binding, isolating the inhibitor or activator/protein kinase complex and determining the amount of radiolabel bound. Alternatively, inhibitor or activator binding may be determined by running a competition experiment where new compounds are incubated with the protein kinase bound to known radioligands. Newer methods comprise fluorescence polarisation assays and surface plasmon resonance dependent techniques. […] The activity and modulation of activity is measured using a standard ATPgamma[^32P] assay as described earlier. […] The concentration of T308tide is 1 mM and the amount of PDK1 used is 200 ng. Reactions are carried out at room temperature. Reaction is started by addition of ATP-Mg mix and stopped with phosphoric acid after 30 min. Stopped reactions were spotted on to phosphocellulose paper (P81, Whatman) and washed. After drying, the radioactivity associated to the band was quantified.

[2] = molecular target: T2, PKCζ (Homo sapiens, UniProt Q05513); test: cell-free kinase activity assay; conditions: DMSO control set 100%; for remaining activity at 50 µM / remaining activity at 200 µM: read-out: percent of catalytic activity of the Kinase in the presence of compound as compared to the solvent control (DMSO): PKCζ; for remaining activity at 200 µM: 200 μM compound
T2 sequence (Q05513 1-592): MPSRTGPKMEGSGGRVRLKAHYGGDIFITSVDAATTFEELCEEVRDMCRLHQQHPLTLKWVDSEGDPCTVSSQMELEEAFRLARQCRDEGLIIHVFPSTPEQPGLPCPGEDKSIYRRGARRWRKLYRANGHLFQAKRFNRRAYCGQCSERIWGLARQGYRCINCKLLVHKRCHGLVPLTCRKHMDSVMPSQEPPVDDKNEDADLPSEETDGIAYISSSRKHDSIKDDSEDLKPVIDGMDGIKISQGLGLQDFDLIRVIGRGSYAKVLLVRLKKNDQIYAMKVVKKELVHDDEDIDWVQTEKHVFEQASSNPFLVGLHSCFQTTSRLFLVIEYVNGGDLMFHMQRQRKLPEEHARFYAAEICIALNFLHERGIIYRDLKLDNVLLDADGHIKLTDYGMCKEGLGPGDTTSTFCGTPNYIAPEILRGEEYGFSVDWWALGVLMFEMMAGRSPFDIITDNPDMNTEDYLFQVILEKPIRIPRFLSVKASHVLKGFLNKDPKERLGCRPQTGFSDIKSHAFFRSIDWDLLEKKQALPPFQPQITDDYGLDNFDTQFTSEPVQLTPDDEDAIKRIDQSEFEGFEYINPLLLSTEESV

[3] = molecular target: PKBβ (Homo sapiens, UniProt P31751); test: cell-free kinase activity assay; conditions: DMSO control set 100%; for remaining activity at 50 µM / percent of catalytic activity of the Kinase in the presence of compound as compared to the solvent control (DMSO): PKBβ: 50 μM compound; for remaining activity at 50 µM / remaining activity at 200 µM: read-out: percent of catalytic activity of the Kinase in the presence of compound as compared to the solvent control (DMSO): PKBβ; for remaining activity at 200 µM: 200 μM compound
[4] = molecular target: T3, SGK (Homo sapiens, UniProt O00141); test: cell-free kinase activity assay; conditions: DMSO control set 100%; for remaining activity at 200 µM / remaining activity at 50 µM: read-out: percent of catalytic activity of the Kinase in the presence of compound as compared to the solvent control (DMSO): SGK
T3 sequence (O00141 1-431): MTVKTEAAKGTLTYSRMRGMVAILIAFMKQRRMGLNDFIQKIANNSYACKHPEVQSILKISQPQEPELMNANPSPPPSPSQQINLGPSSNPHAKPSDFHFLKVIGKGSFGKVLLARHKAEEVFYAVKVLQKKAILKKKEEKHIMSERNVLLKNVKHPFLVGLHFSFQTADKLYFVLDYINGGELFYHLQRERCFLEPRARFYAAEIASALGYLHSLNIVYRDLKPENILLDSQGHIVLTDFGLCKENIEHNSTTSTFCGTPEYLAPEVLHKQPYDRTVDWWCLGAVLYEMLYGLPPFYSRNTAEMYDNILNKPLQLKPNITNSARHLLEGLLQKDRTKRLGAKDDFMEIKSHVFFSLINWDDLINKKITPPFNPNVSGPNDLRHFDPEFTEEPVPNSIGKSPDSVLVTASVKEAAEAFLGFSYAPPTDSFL

[5] = molecular target: S6K (Homo sapiens, UniProt P23443); test: cell-free kinase activity assay; conditions: DMSO control set 100%; for remaining activity at 50 µM / remaining activity at 200 µM: read-out: percent of catalytic activity of the Kinase in the presence of compound as compared to the solvent control (DMSO): S6K
[6] = molecular target: PRK2 (Homo sapiens, UniProt Q16513); test: cell-free kinase activity assay; conditions: DMSO control set 100%
[7] = molecular target: PKA (Homo sapiens, UniProt P17612); test: cell-free kinase activity assay; conditions: DMSO control set 100%

Chain of PRK2 (Q16513 whole entry, species assumed): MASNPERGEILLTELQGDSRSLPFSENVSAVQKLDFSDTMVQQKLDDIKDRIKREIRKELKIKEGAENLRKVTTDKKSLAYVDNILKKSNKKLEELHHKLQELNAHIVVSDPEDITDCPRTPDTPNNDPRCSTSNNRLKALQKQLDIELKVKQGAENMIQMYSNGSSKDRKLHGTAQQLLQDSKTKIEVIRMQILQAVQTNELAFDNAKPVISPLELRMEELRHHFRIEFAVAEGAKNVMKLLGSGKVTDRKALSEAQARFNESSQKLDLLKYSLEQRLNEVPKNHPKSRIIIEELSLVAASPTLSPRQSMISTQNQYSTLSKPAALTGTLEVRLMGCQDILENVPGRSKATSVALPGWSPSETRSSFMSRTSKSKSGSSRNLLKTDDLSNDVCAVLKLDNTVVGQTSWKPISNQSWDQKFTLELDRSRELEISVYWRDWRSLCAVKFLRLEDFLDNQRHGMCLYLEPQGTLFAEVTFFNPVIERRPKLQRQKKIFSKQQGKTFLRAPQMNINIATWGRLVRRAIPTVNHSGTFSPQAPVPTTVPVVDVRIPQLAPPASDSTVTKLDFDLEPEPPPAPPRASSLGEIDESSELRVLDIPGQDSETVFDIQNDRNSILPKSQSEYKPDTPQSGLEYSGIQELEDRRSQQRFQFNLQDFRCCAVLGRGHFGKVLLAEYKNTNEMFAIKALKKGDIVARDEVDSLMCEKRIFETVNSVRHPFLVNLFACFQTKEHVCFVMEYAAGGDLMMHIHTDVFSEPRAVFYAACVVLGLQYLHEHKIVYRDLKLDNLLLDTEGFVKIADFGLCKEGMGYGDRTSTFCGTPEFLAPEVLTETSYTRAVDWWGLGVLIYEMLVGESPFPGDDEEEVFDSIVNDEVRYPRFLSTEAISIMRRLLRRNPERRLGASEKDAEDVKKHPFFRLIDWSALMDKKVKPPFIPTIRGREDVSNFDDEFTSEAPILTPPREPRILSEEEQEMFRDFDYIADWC
Chain of S6K (P23443 whole entry): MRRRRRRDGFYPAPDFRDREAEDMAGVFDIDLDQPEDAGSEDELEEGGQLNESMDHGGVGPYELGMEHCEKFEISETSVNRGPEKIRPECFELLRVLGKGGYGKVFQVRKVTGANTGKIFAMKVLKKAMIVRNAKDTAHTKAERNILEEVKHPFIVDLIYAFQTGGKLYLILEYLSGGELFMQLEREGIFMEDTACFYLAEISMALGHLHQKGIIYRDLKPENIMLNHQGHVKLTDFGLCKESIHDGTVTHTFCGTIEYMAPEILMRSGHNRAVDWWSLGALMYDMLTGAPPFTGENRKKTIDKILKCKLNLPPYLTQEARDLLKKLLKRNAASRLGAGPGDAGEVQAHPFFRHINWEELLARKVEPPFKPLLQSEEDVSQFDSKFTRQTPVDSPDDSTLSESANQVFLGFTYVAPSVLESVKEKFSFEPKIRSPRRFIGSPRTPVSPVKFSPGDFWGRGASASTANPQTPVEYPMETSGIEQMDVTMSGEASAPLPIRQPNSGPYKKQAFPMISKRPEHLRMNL
Chain of PKBβ (P31751 whole entry, species assumed): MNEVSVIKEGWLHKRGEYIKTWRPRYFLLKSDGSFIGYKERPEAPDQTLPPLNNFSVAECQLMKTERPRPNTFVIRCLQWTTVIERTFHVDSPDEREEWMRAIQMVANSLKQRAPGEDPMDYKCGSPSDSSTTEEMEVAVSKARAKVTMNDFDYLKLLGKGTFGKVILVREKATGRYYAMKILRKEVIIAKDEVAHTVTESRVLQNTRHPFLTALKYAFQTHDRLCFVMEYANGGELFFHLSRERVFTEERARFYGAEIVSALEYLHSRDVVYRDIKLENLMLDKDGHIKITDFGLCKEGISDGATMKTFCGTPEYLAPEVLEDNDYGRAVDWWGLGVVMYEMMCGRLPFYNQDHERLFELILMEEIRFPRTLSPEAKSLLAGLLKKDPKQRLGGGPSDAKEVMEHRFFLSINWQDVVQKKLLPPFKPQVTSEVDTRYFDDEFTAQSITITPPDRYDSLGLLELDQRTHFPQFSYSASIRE

Compound | activity at 50 µM [1] | activity at 200 µM [1] | AC50 [1] | max. activation of PDK1 (fold) [1] | remaining activity at 50 µM ([2]; 50 μM compound) | remaining activity at 200 µM [2] | remaining activity at 50 µM [3] | remaining activity at 200 µM [3] | percent of catalytic activity of the Kinase in the presence of compound as compared to the solvent control (DMSO): SGK ([4]; 50 μM compound) | remaining activity at 200 µM ([4]; 200 μM compound) | remaining activity at 50 µM ([5]; 50 μM compound) | remaining activity at 200 µM ([5]; 200 μM compound) | percent of catalytic activity of the Kinase in the presence of compound as compared to the solvent control (DMSO): PRK2 ([6]; 50 μM compound) | percent of catalytic activity of the Kinase in the presence of compound as compared to the solvent control (DMSO): PRK2 ([6]; 200 μM compound) | remaining activity at 50 µM ([4]; 50 μM compound) | percent of catalytic activity of the Kinase in the presence of compound as compared to the solvent control (DMSO): PKA ([7]; 50 μM compound) | percent of catalytic activity of the Kinase in the presence of compound as compared to the solvent control (DMSO): PKA ([7]; 200 μM compound) | percent of catalytic activity of the Kinase in the presence of compound as compared to the solvent control (DMSO): SGK ([4]; 200 μM compound) | percent of catalytic activity of the Kinase in the presence of compound as compared to the solvent control (DMSO): S6K ([5]; 50 μM compound) | percent of catalytic activity of the Kinase in the presence of compound as compared to the solvent control (DMSO): PKBβ [3] | further results
O=C(O)/C=C(/CCc1cccc(Cl)c1)c1ccccc1 [PS 87, (Z)-5-(3-Chlorophenyl)-3-phenylpent-2-enoic acid] | 150% | 150% | 11.6 µM | 4.1 fold | 45% | 3% | ~80% | ~60% | no effect | 60% | 90% | 65% | no effect | no effect | – | – | – | – | – | – | –
O=C(O)/C=C1\c2ccccc2CC1Cc1ccc(Cl)cc1 (stereo not drawn) [PS 102] | – | 180% | 30 µM | 1.8 fold | 45% | 2% | 80 to 90% | 60 to 70% | – | 50% | 90% | 55% | no effect | – | 112% | – | – | – | – | – | remaining activity at 200 µM ([6]; 200 μM compound, read-out: percent of catalytic activity of the Kinase in the presence of compound as compared to the solvent control (DMSO): PRK2): 110%
O=C(O)CC(Cc1nc2cc(Cl)ccc2[nH]1)c1ccc(Cl)cc1 (stereo not drawn) [PS 114, 4-(5-Chloro-2-benzimidazolyl)-3-(4-chlorophenyl)butanoic acid] | 400% | 500% | – | – | – | 30% | 85% | 80% | no effect | – | – | 75% | no effect | no effect | – | no effect | no effect | no effect | no effect | – | percent of catalytic activity of the Kinase in the presence of compound as compared to the solvent control (DMSO): PKCζ ([2]; 50 μM compound): no effect
O=C(O)/C=C(\CCc1ccc(Cl)cc1)c1ccccc1F [PS 145, (E)-5-(4-Chlorophenyl)-3-(2-fluorophenyl)pent-2-enoic acid] | – | ~120% | – | – | 50% | 0% | – | ~70% | – | ~40% | – | ~80% | – | – | ~80% | no effect | – | – | no effect | no effect | remaining activity at 200 µM ([7]; 200 μM compound, read-out: percent of catalytic activity of the Kinase in the presence of compound as compared to the solvent control (DMSO): PKA): ~60%
O=C(O)/C=C(/CCc1ccc(Br)cc1)c1ccccc1 [PS-T10, (Z)-5-(4-Bromophenyl)-3-phenylpent-2-enoic acid] | 400% | 450% | 14.5 µM | 4.1 fold | – | – | – | 70 to 80% | no effect | – | – | – | no effect | no effect | – | no effect | no effect | no effect | no effect | no effect | percent of catalytic activity of the Kinase in the presence of compound as compared to the solvent control (DMSO): S6K ([5]; 200 μM compound): no effect
